{"source": "ChEMBL document CHEMBL4043066", "about": "“Drug Discovery Targeting Bromodomain-Containing Protein 4” (J Med Chem, 2017)", "key": {"[1]": {"target": "T1, Bromodomain-containing protein 4 (Homo sapiens, UniProt O60885)", "assay": "Inhibition of GST-tagged BRD4 (unknown origin) using biotinylated acetyl-histone H4 peptide as substrate after 30 mins by AlphaScreen assay"}, "Mus musculus": {"species": "Mus musculus", "assay": "Antiinflammatory activity in CD1 mouse assessed as inhibition of LPS-induced IL-6 production pretreated for 1 hr followed by LPS stimulation after 2 hrs by immunoassay relative to control", "type": "functional"}, "[2]": {"target": "T1, Bromodomain-containing protein 4", "assay": "Inhibition of recombinant His-tagged BRD4 (unknown origin) using biotinylated acetyl-histone H4 as substrate by AlphaLisa assay"}, "MX1 [3]": {"test_system": "MX1", "assay": "Antiproliferative activity against human MX1 cells after 72 hrs by CellTiter-Glo assay", "type": "functional, cell-based", "settings": "MX1, 72 h"}, "MV4-11 [4]": {"test_system": "MV4-11", "assay": "Growth inhibition of human MV4-11 cells after 4 days by CellTiter-Glo assay", "type": "functional", "settings": "MV4-11, 96 h"}, "[5]": {"target": "T1, Bromodomain-containing protein 4", "assay": "Inhibition of His-tagged BRD4 (unknown origin) using acetyl-histone H4 as substrate after 35 mins by TR-FRET assay"}, "CREB-binding protein": {"target": "CREB-binding protein (Homo sapiens, UniProt Q92793)", "sequence (Q92793 whole entry)": "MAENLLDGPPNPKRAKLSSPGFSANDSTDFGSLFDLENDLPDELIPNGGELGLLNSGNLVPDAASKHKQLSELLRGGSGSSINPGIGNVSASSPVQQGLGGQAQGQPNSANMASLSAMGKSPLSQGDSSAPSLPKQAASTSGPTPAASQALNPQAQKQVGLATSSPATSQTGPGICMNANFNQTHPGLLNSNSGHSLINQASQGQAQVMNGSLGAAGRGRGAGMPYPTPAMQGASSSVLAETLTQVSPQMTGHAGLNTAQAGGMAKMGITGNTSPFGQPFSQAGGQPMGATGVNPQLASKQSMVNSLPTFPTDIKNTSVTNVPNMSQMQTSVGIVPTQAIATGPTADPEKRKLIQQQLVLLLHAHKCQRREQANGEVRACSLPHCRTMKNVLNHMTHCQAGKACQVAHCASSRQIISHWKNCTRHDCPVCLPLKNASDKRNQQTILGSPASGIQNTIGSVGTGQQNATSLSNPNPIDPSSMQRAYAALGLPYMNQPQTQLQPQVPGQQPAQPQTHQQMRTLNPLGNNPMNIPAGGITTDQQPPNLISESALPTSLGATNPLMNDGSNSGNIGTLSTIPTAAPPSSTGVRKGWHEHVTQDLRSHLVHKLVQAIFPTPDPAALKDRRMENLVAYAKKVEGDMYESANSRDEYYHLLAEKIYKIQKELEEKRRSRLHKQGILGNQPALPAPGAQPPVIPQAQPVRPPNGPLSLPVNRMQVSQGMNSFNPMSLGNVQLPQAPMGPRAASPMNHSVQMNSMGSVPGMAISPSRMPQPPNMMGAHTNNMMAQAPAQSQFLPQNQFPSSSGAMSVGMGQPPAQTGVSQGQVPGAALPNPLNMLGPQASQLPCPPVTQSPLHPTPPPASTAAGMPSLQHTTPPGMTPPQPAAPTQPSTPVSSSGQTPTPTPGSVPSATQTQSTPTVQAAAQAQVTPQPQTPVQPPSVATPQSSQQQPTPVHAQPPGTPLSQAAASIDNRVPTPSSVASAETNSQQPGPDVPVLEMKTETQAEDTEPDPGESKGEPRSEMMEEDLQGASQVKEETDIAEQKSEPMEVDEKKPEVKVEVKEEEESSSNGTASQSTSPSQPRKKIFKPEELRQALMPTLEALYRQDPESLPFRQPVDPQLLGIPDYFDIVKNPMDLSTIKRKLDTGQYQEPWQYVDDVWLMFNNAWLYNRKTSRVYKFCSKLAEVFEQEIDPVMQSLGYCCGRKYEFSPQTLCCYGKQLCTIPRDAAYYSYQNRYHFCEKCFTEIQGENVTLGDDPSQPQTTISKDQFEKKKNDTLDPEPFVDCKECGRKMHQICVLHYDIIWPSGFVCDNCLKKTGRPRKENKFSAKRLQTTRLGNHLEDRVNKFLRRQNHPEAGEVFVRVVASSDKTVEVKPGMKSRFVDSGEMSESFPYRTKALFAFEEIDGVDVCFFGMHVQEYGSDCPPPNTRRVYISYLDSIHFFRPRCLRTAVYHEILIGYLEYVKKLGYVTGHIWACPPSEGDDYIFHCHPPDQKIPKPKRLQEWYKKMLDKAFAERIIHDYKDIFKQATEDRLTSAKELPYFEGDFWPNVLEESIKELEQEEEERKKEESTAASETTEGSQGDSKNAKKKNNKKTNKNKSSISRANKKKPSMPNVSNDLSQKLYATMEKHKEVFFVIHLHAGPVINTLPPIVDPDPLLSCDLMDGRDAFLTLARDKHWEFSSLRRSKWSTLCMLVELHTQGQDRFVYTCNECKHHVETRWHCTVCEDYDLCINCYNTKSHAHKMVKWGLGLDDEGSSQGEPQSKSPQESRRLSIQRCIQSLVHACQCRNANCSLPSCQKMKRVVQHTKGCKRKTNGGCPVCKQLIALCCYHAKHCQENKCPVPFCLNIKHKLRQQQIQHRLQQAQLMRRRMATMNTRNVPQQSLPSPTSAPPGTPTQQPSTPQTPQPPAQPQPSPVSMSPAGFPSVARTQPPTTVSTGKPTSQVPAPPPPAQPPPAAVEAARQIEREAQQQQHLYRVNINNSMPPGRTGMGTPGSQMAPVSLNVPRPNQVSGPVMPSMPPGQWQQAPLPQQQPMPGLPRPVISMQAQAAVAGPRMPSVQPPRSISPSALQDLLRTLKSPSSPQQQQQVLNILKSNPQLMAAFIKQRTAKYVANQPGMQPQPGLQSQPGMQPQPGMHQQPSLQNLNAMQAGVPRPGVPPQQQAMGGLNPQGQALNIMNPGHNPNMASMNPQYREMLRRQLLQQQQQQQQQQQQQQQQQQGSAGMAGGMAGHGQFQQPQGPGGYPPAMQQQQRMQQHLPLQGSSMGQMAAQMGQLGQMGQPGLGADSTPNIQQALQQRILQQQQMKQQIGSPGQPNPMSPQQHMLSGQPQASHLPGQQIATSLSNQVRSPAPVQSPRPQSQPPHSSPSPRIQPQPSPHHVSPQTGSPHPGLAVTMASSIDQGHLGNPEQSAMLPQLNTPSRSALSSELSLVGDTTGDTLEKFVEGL", "assay": "Inhibition of His-tagged CREBP (unknown origin) using acetyl-histone H4 as substrate after 35 mins by AlphaScreen assay"}, "MV4-11 [6]": {"test_system": "MV4-11", "assay": "Antiproliferative activity against human MV4-11 cells after 4 days by CellTiter-Glo assay", "type": "functional, cell-based", "settings": "MV4-11, 96 h"}, "[7]": {"assay": "Antitumor activity against human JJN3R cells xenografted subcutaneously in mouse assessed as tumor growth inhibition at 1 mg/kg, po relative to control", "type": "functional", "settings": "JJN-3R, read-out: TGI"}, "[8]": {"target": "T1, Bromodomain-containing protein 4", "assay": "Inhibition of recombinant human N-terminal His6-tagged BRD4 bromodomain 1 expressed in Escherichia coli BL21(DE3) using biotinylated histone peptide as substrate after 60 mins by TR-FRET assay"}, "[9]": {"target": "T1, Bromodomain-containing protein 4", "assay": "Inhibition of His-epitope tagged BRD4 bromodomain 2 (333 to 460 residues) (unknown origin) using biotinylated histone H4 as substrate after 1 hr by AlphaScreen assay"}, "[10]": {"target": "T1, Bromodomain-containing protein 4", "assay": "Inhibition of His-epitope tagged BRD4 bromodomain 1 (44 to 168 residues) (unknown origin) using biotinylated histone H4 as substrate after 1 hr by AlphaScreen assay"}, "[11]": {"assay": "Metabolic stability in CD1 mouse liver microsomes assessed as compound remaining at 1 uM after 30 mins in presence of NADPH by LC/MS analysis", "type": "ADME, microsome", "settings": "read-out: Stability"}, "[12]": {"assay": "Metabolic stability in human liver microsomes assessed as compound remaining at 1 uM after 30 mins in presence of NADPH by LC/MS analysis", "type": "ADME, microsome", "settings": "read-out: Stability"}, "[13]": {"target": "T1, Bromodomain-containing protein 4", "assay": "Inhibition of biotin-labeled acetylated peptide binding to BRD4 bromodomain 1 (unknown origin) expressed in Escherichia coli BL21 after 1 hr by BROMOscan assay"}, "MV4-11 [14]": {"test_system": "MV4-11", "assay": "Antiproliferative activity against human MV4-11 cells after 72 hrs by alamarBlue assay", "type": "functional, cell-based", "settings": "MV4-11, 72 h"}, "MT4": {"test_system": "MT4", "assay": "Antiproliferative activity against human MT4 cells after 5 days by CellTiter-Glo assay", "type": "functional", "settings": "MT4, 120 h"}, "MX1 [15]": {"test_system": "MX1", "assay": "Antiproliferative activity against human MX1 cells incubated for >= 72 hrs by CellTiter-Glo assay", "type": "functional, cell-based", "settings": "MX1, 72 h"}, "[16]": {"target": "T1, Bromodomain-containing protein 4", "assay": "Inhibition of His-tagged BRD4 bromodomain 1 (K57 to E168 residues) (unknown origin) after 1 hr by TR-FRET assay"}, "MV4-11 [17]": {"test_system": "MV4-11", "assay": "Antiproliferative activity against human MV4-11 cells", "type": "functional, cell-based"}, "[18]": {"target": "T1, Bromodomain-containing protein 4", "assay": "Inhibition of His-tagged BRD4 (44 to 477 residues) (unknown origin) using acetyl-histone H4 as substrate after 35 mins by TR-FRET assay"}, "[19]": {"target": "T1, Bromodomain-containing protein 4", "assay": "Inhibition of GST-tagged BRD4 bromodomain 1 (44 to 168 residues) (unknown origin) using biotinylated acetyl-histone H4 peptide as substrate after 30 mins in dark by AlphaScreen assay"}, "MX1 [20]": {"test_system": "MX1", "assay": "Antitumor activity against human MX1 cells xenografted subcutaneously in SCID mouse assessed as tumor growth inhibition at 100 mg/kg, po after day 17 relative to control", "type": "functional", "settings": "MX1, 408 h, read-out: TGI"}}, "data": [{"smiles": "Cc1noc(C)c1-c1ccc2c(c1)C(c1ccccc1)N(C)C(=O)N2", "note": "(stereo not drawn)", "values": [{"measurement": "IC50", "setting": "[1]", "value": 27, "unit": "nM"}]}, {"smiles": "CCS(=O)(=O)c1ccc2c(c1)-c1cn(C)c(=O)cc1OCCCCc1cc(F)cc(F)c1O2", "values": [{"measurement": "inhibition (INH)", "setting": "Mus musculus", "value": 81, "unit": "%"}, {"measurement": "IC50", "setting": "[2]", "value": 1.3, "unit": "nM"}, {"measurement": "EC50", "setting": "MX1 [3]", "value": 8.7, "unit": "nM"}]}, {"smiles": "Cc1cc(N2C(=O)c3c(C4CC4)cn(C4COC4)c3C2c2ccc(Cl)cc2)cn2c(C)nnc12", "note": "(stereo not drawn)", "values": [{"measurement": "GI50", "setting": "MV4-11 [4]", "value": 2.9, "unit": "nM"}]}, {"smiles": "CCOc1cc(=O)n(C)cc1-c1cc(N(CC2CC2)S(=O)(=O)CC)ccc1Oc1ccc(F)cc1F", "values": [{"measurement": "EC50", "setting": "MX1 [3]", "value": 233, "unit": "nM"}]}, {"smiles": "Cc1nn(C2CC2)c2c1[C@@H](c1ccc(Cl)cc1)N(c1cc(C)c3nnc(C)n3n1)C2=O", "values": [{"measurement": "IC50", "setting": "[5]", "value": "< 11", "unit": "nM"}, {"measurement": "IC50", "setting": "CREB-binding protein", "value": 3700, "unit": "nM"}, {"measurement": "IC50", "setting": "MV4-11 [6]", "value": 3.4, "unit": "nM"}]}, {"smiles": "[2H]C([2H])([2H])c1nnn(C)c1-c1cnc2c3ccc(C(C)(C)O)cc3n([C@H](c3ccccc3)C3CCC(F)(F)CC3)c2c1", "values": [{"measurement": "inhibition in vivo at 1 mg/kg", "setting": "[7]", "value": 93, "unit": "%"}, {"measurement": "IC50", "setting": "[8]", "value": "< 5", "unit": "nM"}]}, {"smiles": "CC(=O)N1c2ccc(-c3cnn(C4CC4)c3)cc2C(OC[C@H]2CC2(F)F)C[C@H]1C", "note": "(stereo partly drawn)", "values": [{"measurement": "IC50", "setting": "[9]", "value": "< 50", "unit": "nM"}, {"measurement": "IC50", "setting": "[10]", "value": "< 100", "unit": "nM"}]}, {"smiles": "COc1cc2c(cc1-c1c(C)noc1C)ncc1nc(CN3CCOCC3)n([C@H](C)COC(F)F)c12", "values": [{"measurement": "remaining at 0.5 h, 1 µM", "setting": "[11]", "value": 3.7, "unit": "%"}, {"measurement": "remaining at 0.5 h, 1 µM", "setting": "[12]", "value": 1.9, "unit": "%"}]}, {"smiles": "Cc1sc2c(c1C)C(c1ccc(Cl)cc1)=N[C@@H](CC(=O)OCCCCCCO)c1nnc(C)n1-2", "values": [{"measurement": "Kd", "setting": "[13]", "value": 0.43, "unit": "nM"}]}, {"smiles": "CNC(=O)N1N=C(c2ccc(N3CC4(CCS4(=O)=O)C3)cc2)c2cc(OC(F)(F)F)ccc2C[C@@H]1C", "values": [{"measurement": "IC50", "setting": "MV4-11 [14]", "value": 30, "unit": "nM"}]}, {"smiles": "Cc1noc(C)c1-c1cc(-c2c(C3CC3)n[nH]c2C2CC2)c2[nH]c(=O)[nH]c2c1", "values": [{"measurement": "CC50", "setting": "MT4", "value": 9.1, "unit": "nM"}]}, {"smiles": "Cc1noc(C)c1-c1cc(C(O)(c2cnccn2)c2c(F)cccc2F)c2[nH]c(=O)[nH]c2c1", "note": "(stereo not drawn)", "values": [{"measurement": "CC50", "setting": "MT4", "value": 9.7, "unit": "nM"}]}, {"smiles": "CCS(=O)(=O)Nc1ccc(Oc2ccc(F)cc2F)c(-c2cn(C)c(=O)c3[nH]c(C#CCOC)cc23)c1", "values": [{"measurement": "EC50", "setting": "MX1 [15]", "value": 48, "unit": "nM"}, {"measurement": "Ki", "setting": "[16]", "value": 1.6, "unit": "nM"}]}, {"smiles": "CCS(=O)(=O)c1ccc2c(c1)-c1cn(C)c(=O)cc1OCCCCc1cc(Cl)ccc1O2", "values": [{"measurement": "inhibition (INH)", "setting": "Mus musculus", "value": 83, "unit": "%"}, {"measurement": "IC50", "setting": "[2]", "value": 0.93, "unit": "nM"}, {"measurement": "EC50", "setting": "MX1 [3]", "value": 5.7, "unit": "nM"}]}, {"smiles": "Cc1noc(C)c1-c1ccc2c(c1)C(O)(c1ccccc1)C(=O)N2", "note": "(stereo not drawn)", "values": [{"measurement": "IC50", "setting": "MV4-11 [17]", "value": 58, "unit": "nM"}]}, {"smiles": "Cc1noc(C)c1-c1ccc2c(c1)C(c1ccsc1)(N1CCC[C@H](N)C1)C(=O)N2", "note": "(stereo partly drawn)", "values": [{"measurement": "IC50", "setting": "MV4-11 [17]", "value": 34, "unit": "nM"}]}, {"smiles": "COc1ncccc1-c1c(C2CC2)c2c(n1C)C(c1ccc(Cl)cc1)N(c1cc(C)c3nnc(C)n3c1)C2=O", "note": "(stereo not drawn)", "values": [{"measurement": "GI50", "setting": "MV4-11 [4]", "value": 3, "unit": "nM"}, {"measurement": "IC50", "setting": "[18]", "value": "< 11", "unit": "nM"}]}, {"smiles": "Cc1cc(-c2nc3ccc(N4CCOC[C@@H]4C)cc3n2[C@@H](C)c2ccccc2)cn(C)c1=O", "values": [{"measurement": "IC50", "setting": "[19]", "value": 12, "unit": "nM"}]}, {"smiles": "COc1cc2c(cc1-c1c(C)noc1C)ncc1nc(C3CCC(F)(F)CC3)n([C@H](C)COC(F)F)c12", "values": [{"measurement": "remaining at 0.5 h, 1 µM", "setting": "[11]", "value": 35, "unit": "%"}, {"measurement": "remaining at 0.5 h, 1 µM", "setting": "[12]", "value": 62, "unit": "%"}]}, {"smiles": "CC(=O)N1c2ccc(-c3cnn([C@H]4CCNC[C@H]4F)c3)c(OCC3CCC3)c2CC[C@H]1C", "values": [{"measurement": "IC50", "setting": "[9]", "value": "< 50", "unit": "nM"}, {"measurement": "IC50", "setting": "[10]", "value": "< 100", "unit": "nM"}]}, {"smiles": "CNC(=O)N1N=C(c2ccc(N3CC4(CCS4(=O)=O)C3)cc2)c2cc(-n3nc(C)cc3C)ccc2C[C@@H]1C", "values": [{"measurement": "IC50", "setting": "MV4-11 [14]", "value": 80, "unit": "nM"}]}, {"smiles": "CC(=O)N1CC(n2cc(C3CC3)c3c2C(c2ccc(Cl)cc2)N(c2cc(C)c4nnn(C)c4n2)C3=O)C1", "note": "(stereo not drawn)", "values": [{"measurement": "GI50", "setting": "MV4-11 [4]", "value": 0.3, "unit": "nM"}, {"measurement": "IC50", "setting": "[18]", "value": "< 11", "unit": "nM"}]}, {"smiles": "CCNC(=O)CC1N=C(C2CCCCC2)c2cc(OC)ccc2-c2cn(C)c(=O)cc21", "note": "(stereo not drawn)", "values": [{"measurement": "EC50", "setting": "MV4-11 [14]", "value": 8, "unit": "nM"}]}, {"smiles": "Cc1[nH]c(-c2cc(NS(C)(=O)=O)ccc2Oc2ccccc2)c2c1C(=O)CCC2", "values": [{"measurement": "inhibition in vivo at 100 mg/kg", "setting": "MX1 [20]", "value": 80, "unit": "%"}]}]}
